The results in this text go back to patent US9763996B2, “Polymyxin derivative and uses thereof” (Northern Antibiotics Ltd., priority 2015, dated 2017).

The subject of one data set is K. pneumoniae ATCC 43816. The note with it: K. pneumoniae ATCC 43816.
For a further data set, the system named is Escherichia coli C175-94. Kind of data set: Murine urinary tract infection efficacy. It counts as in vivo. The note with it: for dose-response in the CFUs in the bladder and in the kidneys: 0.25-2 mg/kg/dose s.c. twice a day. As for the experimental part: The study used 64 outbred, OF-1 female mice (Charles River, France) weighing 28-32 grams and Escherichia coli C175-94 (serotype O8:K48:H4), a clinical isolate elaborating type 1 fimbriae. The peptides were NAB815 (Lot 1054308) and polymyxin B (Sigma-Aldrich, batch BCBF8382V). The study was performed by Statens Serum Institut, Copenhagen, Denmark.
Three days before the start of the study and during the study, the mice had free access to 5% glucose in drinking water.
On day 0, the urine was removed from the bladder by gently pressing the abdomen. Thereafter, the mouse was anaesthetized with approximately 0.15 ml of Zoletil mix s.c. A syringe with polyethylene catheter (Becton Dickison) containing the bacterial suspension was inserted via the urethra into the bladder and 50 μl of the bacterial inoculum was slowly injected into the bladder. Thereafter, the mouse was left in the cage. Mice were kept in a warming cabinet and were under surveillance until fully awake.
After measuring the colony forming units (CFUs), the inoculum was determined to contain 9.38 log 10 CFU/ml, corresponding to 8.08 log 10 CFU/mouse.
On day 1 and day 2 postinfection, the mice were treated subcutaneously with solutions (0.2 ml) containing NAB815, polymyxin B or vehicle (0.9% NaCl) twice a day. The treatment groups (six mice in each) were the following: vehicle control; NAB815, 0.25 mg/kg/dose; NAB815, 0.5 mg/kg/dose; NAB815, 1 mg/kg/dose; NAB815, 2 mg/kg/dose; polymyxin B, 0.25 mg/kg/dose; polymyxin B, 0.5 mg/kg/dose; polymyxin B, 1 mg/kg/dose; and polymyxin B, 2 mg/kg/dose. In addition, one group served as a pretreatment control to help to assess as how the infection has proceeded before the start of the treatment on day 1 postinfection.
On days 1, 2 and 3 postinfection urine was sampled for colony counts. On day 1 postinfection (pretreatment control group) and on day 3 postinfection (all the other groups) after the urine sample was taken, mice were sacrificed by cervical dislocation and bladder and kidneys were removed aseptically. The bladder and kidneys were stored at −80° C. and later homogenized in 0.5 and 1 ml saline, respectively.
CFUs in urine were determined immediately within 2-3 hours after sampling. Frozen organs were thawed and homogenized with steel beads on a tissue lyser. All samples, urine, kidney and bladder, were 10 fold diluted in saline and 20-μl spots were applied on blood agar plates in duplicates. In addition, undiluted samples of urine (2-100 μl depending on the amount of urine) were spread on a separate agar plate to determine the lowest possible detection level of the colony counts. All agar plates were incubated 18-22 h at 35° C. in ambient air.

A further data set relates to P. aeruginosa JMI 7445. The note with it: P. aeruginosa JMI 7445.
Data set [1] in a line: Toxicokinetics (plasma and urine) in cynomolgus monkeys. The note with it: for AUC: plasma. As for the experimental part: For seven days, the animals were dosed by intravenous (IV) infusion three times daily (TID) at a dose volume of 10 mL/kg for 1 hour (±10 minutes), 8±0.5 hours apart. The day of initial dose administration was designated study Day 1, with subsequent days consecutively numbered. Days prior to the initial dose administration were consecutively numbered with the final day of acclimation referenced as Day −1.
The following parameters were evaluated at designed intervals: clinical observations, body weights, clinical pathology (hematology, coagulation, serum chemistry, urinalysis including urine sediments and urine chemistry), toxicokinetics (plasma and urine) and anatomic pathology (kidney). In cases of animals sacrificed on an unscheduled basis, samples were taken on the day of the sacrifice.
Plasma and urine concentrations for toxicokinetic (TK) studies were determined by using liquid chromatograph interfaced with a mass spectrometer after precipitation of proteins. A sample (100 μL) was mixed with internal standard solution in water:formic acid (99:1 v/v; […]). Then, 600 μL of 100:1 acetonitrile:formic acid was added. The plates were centrifuged at 3200 rpm for 5 minutes. Using a Tomtec Quadra96, a 450 μL aliquot was transferred to a new 96-well plate and dried under nitrogen at 40° C. Then, 200 μL of water:methanol:formic acid (85:15:1 1 v/v) was added and the plate sealed for LC-MS/MS injection. LC-MS system consisted of Waters Acquity liquid chromatograph interfaced with a Thermo Scientific TSQ Quantitative triple quadrupole MS with ionization in the positive ion mode. Each sample (20 μL) was injected onto a Waters Acquity BEH Shield RP18 column (2.1×50 mm; 1.7 μm) equilibrated at 50° C. Mobile Phase A was 85:15:1 v/v water:methanol:formic acid. Mobile Phase B was 50:50:1 v/v acetonitrile:methanol:formic acid.
Peak area ratios from the calibration standard responses were regressed using a (1/concentration^2) linear fit for polymyxin B using colistin as the internal standard. For NAB739 and NAB815, peak areas from the calibration standard responses were regressed using a (1/concentration^2) quadratic fit (without the use of an internal standard).
The regression models were chosen based upon the behavior of the analytes across the concentration range used during development.
Toxicokinetic analysis was performed by using WinNonlin Phoenix version 6.3 software (Pharsight, Cary, N.C.). For plasma TK, noncompartmental IV infusion model was used.
In the cynomolgus monkey studies described in Example 3, where the peptides were administered as a 1-hour intravenous infusion three times daily, plasma and urine levels of the peptides were determined.

The mark [2] stands for this setting: in combination with rifampin 0.25 μg/mL.
Setting [3] is: of all 24 mice treated at 0.25-2 mg/kg/dose.
[4] abbreviates: alone, K. pneumoniae JMI 27068 (polymyxin-nonsusceptible).
[5] abbreviates: in combination with rifampin 0.25 μg/mL, K. pneumoniae JMI 27068.

Converted amounts (≈) assume the structure as drawn. “And” between values parts separate entries of the source, which are not always exact repeats. Equal entries are not always repeated. Where two headings read alike, the source gives them in different places. Where a SMILES comes first, the peptide text is derived from it. Bridges are numbered along the chain shown (N, C = ends). [ ]: non-standard residue; d: D form. The star is where a group is joined. Octanoyl = CCCCCCCC(=O)*; Dab = NCC[C@H](N)C(=O)O; Abu = CC[C@H](N)C(=O)O

Turning to `CCCCCCCC(=O)N[C@@H](CCN)C(=O)N[C@H](C(=O)N[C@@H](C(=O)N[C@H]1CCNC(=O)[C@H]([C@@H](C)O)NC(=O)[C@H](CCN)NC(=O)[C@H](CC)NC(=O)[C@H](CC(C)C)NC(=O)[C@@H](Cc2ccccc2)NC(=O)[C@H](CCN)NC1=O)[C@H](C)O)[C@@H](C)O` [NAB815, octanoyl-αDab-Thr-DThr-[cyclo-α,γDab-αDab-DPhe-Leu-Abu-αDab-Thr]] (Octanoyl-[Dab]T[dT][Dab][Dab][dF]L[Abu][Dab]T; lactam 4-C), the MIC in the data set on K. pneumoniae ATCC 43816 (setting [2]) is 1 µg/mL; in the data set on K. pneumoniae JMI 27068 (setting [4]), 128 µg/mL (≈ 109 µM); with K. pneumoniae JMI 27068 (setting [5]) it was 4 µg/mL; against P. aeruginosa JMI 7445 (alone), 8 µg/mL (≈ 6.81 µM). Also, the “MIC of rifampin in the presence of the peptide” value in the data set with K. pneumoniae ATCC 43816 (peptide at 1 μg/mL) stood at 0.25 µg/mL. In addition, in the data set on K. pneumoniae ATCC 43816 (peptide at 1 μg/mL), the “factor of decrease of the MIC of rifampin” value stood at 64. In addition, the “CFU levels in urine, day 3 vs pretreatment control day 1” value in the data set on Escherichia coli C175-94 (0.25 mg/kg/dose s.c. twice a day, OF-1 female mice) was “no significant differences”; in the data set on Escherichia coli C175-94 (0.5 mg/kg/dose s.c. twice a day, OF-1 female mice), “no significant differences”; in the data set on Escherichia coli C175-94 (1 mg/kg/dose s.c. twice a day, OF-1 female mice, ** p<0.01) it was “significant reduction of CFU levels in urine”; in the data set on Escherichia coli C175-94 (2 mg/kg/dose s.c. twice a day, OF-1 female mice, * p<0.05), “significant reduction of CFU levels in urine”. In addition, the “dose-response in the CFUs in the bladder and in the kidneys” value with Escherichia coli C175-94 is “showed a tendency of a dose-response”. For the same compound, the “number of mice with bacterial levels below the detection limit in the kidneys” value in the data set with Escherichia coli C175-94 (setting [3]) worked out at 20 mice. Further, in the data set with Escherichia coli C175-94 (setting [3]), the “number of mice with bacterial levels below the detection limit in the urine” value is 8 mice. For the same compound, the AUC in data set [1] (cynomolgus monkey, in vivo, 36 mg/kg/day, AUCs, dosed at 36 mg/kg/d, day 1) was 153 µg·h/mL; in data set [1] (cynomolgus monkey, in vivo, iv, 8 mg/kg, AUCs 0-8 h, after infusion of 8 mg/kg, day 1), 102 µg·h/mL; in data set [1] (cynomolgus monkey, in vivo, iv, 8 mg/kg, AUCs 0-8 h, after infusion of 8 mg/kg, day 7), 110 µg·h/mL; in data set [1] (cynomolgus monkey, in vivo, iv, 36 mg/kg/day, AUCs, dosed at 36 mg/kg/d, day 7) it was 205 µg·h/mL. Besides, in data set [1] (female, cynomolgus monkey, in vivo, iv, 36 mg/kg/d, urinary recoveries (0-8 h urine collection), 36 mg/kg/d, day 7, each animal), the dose excreted was 33.9%.

As to Polymyxin B, the MIC is 2 µg/mL against K. pneumoniae ATCC 43816 (alone); 0.5 to 1 µg/mL in the data set on K. pneumoniae ATCC 43816 (setting [2]); 64 µg/mL in the data set with K. pneumoniae JMI 27068 (setting [4]); 1 µg/mL with K. pneumoniae JMI 27068 (setting [5]); 2 µg/mL against P. aeruginosa JMI 7445 (alone); 1 µg/mL in the data set with P. aeruginosa JMI 7445 (setting [2]). In the data set on Escherichia coli C175-94, the “dose-response in the CFUs in the bladder and in the kidneys” value is reported as “did not show any dose-response tendency”. Besides, the “CFU levels in urine, day 3 vs pretreatment control day 1” value with Escherichia coli C175-94 (any dose group (0.25, 0.5, 1, 2 mg/kg/dose) s.c. twice a day) is on record as “no significant differences”. For the same compound, the “number of mice with bacterial levels below the detection limit in the urine” value in the data set with Escherichia coli C175-94 (setting [3]) is 1 mice. Also, the “0-8 h recovery in urine (of the dose)” value in data set [1] (after infusion of 8 mg/kg, given for each animal, 8 mg/kg) was 1% and 2% (2×).

As a reminder, the MIC is the smallest concentration in the dilution series that meets the test's criterion for growth inhibition. One may read the AUC as concentration integrated over time. A higher AUC goes with high exposure.
